A short description of series [1]: Solubility kinetics in FaSSIF medium. The note with it: after 24 h; for Soluble fraction: 37° C.; for pH: pH given with the soluble fraction. The series is classed as physicochemical. On the procedure: The solubility kinetics of the salt forms as well as the native EYP001 free acid form were determined in FaSSIF and FeSSIF media, and in a pH 4.5 acetate buffer as detailed below: The samples were prepared by adding an excess of each tested bulk (salt or native EYP001) to a given volume of test medium. The suspension was stirred by orbital stirring over 1 hour (in both pH 4.5 acetate buffer and FeSSIF medium) or 24 hours ([…] medium) at 37° C., protected from light. In FaSSIF medium, the soluble concentration was assessed after 24 hours of stirring. […] At each time point, the “supernatant” was isolated and diluted in a solvent mixture allowing its injection into the chromatographic system. The concentration in solution in the test medium was determined by HPLC with external standardization.

A short description of series [2]: Solubility kinetics in pH 4.5 acetate buffer. The conditions noted are these: 37 ° C. The format is physicochemical. As to the method:
The solubility kinetics of the salt forms as well as the native EYP001 free acid form were determined in FaSSIF and FeSSIF media, and in a pH 4.5 acetate buffer as detailed below:
The samples were prepared by adding an excess of each tested bulk (salt or native EYP001) to a given volume of test medium. The suspension was stirred by orbital stirring over 1 hour (in both pH 4.5 acetate buffer and FeSSIF medium) or 24 hours (inFaSSIF medium) at 37° C., protected from light.
In pH 4.5 acetate buffer, the soluble concentration was assessed after 0.5 hour and 1 hour of stirring.
At each time point, the “supernatant” was isolated and diluted in a solvent mixture allowing its injection into the chromatographic system. The concentration in solution in the test medium was determined by HPLC with external standardization.

Series [3] can be described thus: Dynamic Vapor Sorption (DVS) analysis (gas water sorption). The series is classed as physicochemical. The conditions noted are these: for water uptake upon sorption (DVS): 25° C./95% RH; for hygroscopicity (DVS): hygroscopic above 2% mass gain at 25° C./60% RH. As to the method: The dynamic vapor sorption (DVS) analysis (gas water sorption) was performed on a DVS-Intrinsic incubator (SMS Ltd), equipped with DVS-Intrinsic Control Software 1.0. The sample, placed in an aluminium basket holder, was submitted to a full-cycle analysis (sorption followed by desorption cycle) under the following conditions:
The sample was first pre-dried under a stream of dry air until a stabilized sample mass was observed. Then, the relative humidity was increased by 5% increments. At each step, the sample mass was allowed to increase until equilibrium is reached (according to a given dm/dt target), and then a new relative humidity rise occurred. Relative humidity was ramped up to 95%. After equilibration at this point, desorption began in a similar stepwise manner, with sample mass decrease again allowed to stabilize after each incremental humidity decrease.
With both segments of the above-described method, the sample mass recording allowed describing of the whole vapor water sorption/desorption behaviour versus relative humidity.

Series [4] can be described thus: Thermogravimetric analysis (TGA), mass losses upon heating. The format is physicochemical. As to the method: Thermogravimetric analysis was performed on a TA Instruments TGA Hi-Res 2950 apparatus equipped with an evolved gas analysis furnace. A sample was placed in an opened aluminium basket and analysed according to the following conditions: […]
The nature of series [5]: Solubility kinetics in FeSSIF medium. The series is classed as physicochemical. The conditions noted are these: for Soluble fraction: 37 ° C. On the procedure:
The solubility kinetics of the salt forms as well as the native EYP001 free acid form were determined in FaSSIF and FeSSIF media, and in a pH 4.5 acetate buffer as detailed below: The samples were prepared by adding an excess of each tested bulk (salt or native EYP001) to a given volume of test medium. […] In FaSSIF medium, the soluble concentration was assessed after 24 hours of stirring. […] At each time point, the “supernatant” was isolated and diluted in a solvent mixture allowing its injection into the chromatographic system. The concentration in solution in the test medium was determined by HPLC with external standardization.

The nature of series [6]: Pharmacokinetic study Experiment #4, oral administration in rats. The conditions noted are these: 10 mg EqEYP001/Kg. The format is in vivo, rat. As to the method:
In a fourth study (Experiment #4), EYP001, EYP001 L-lysine salt amorphous Form and EYP001 L-lysine salt Form VI in aqueous formulations (0.5% CMC, 0.25% Tween 80, water) were orally administrated at a dose of 10 mg EqEYP001/Kg in 8 male rats for each compound (4 rats on day 1 and 4 rats on day 2 for each compound). Blood samples were taken at 0.25 h, 0.5 h, 1 h, 2 h, 4 h, 6 h, 8 h, 12 h, and 24 h after oral administration.

The nature of series [7]: Pharmacokinetic study Experiment #1, oral administration in rats. The note with it: 50 mg EqEYP001/Kg, male rats, aqueous formulation. The format is in vivo, rat. As to the method:
In a first study (Experiment #1), EYP001, EYP001 Meglumine salt, and EYP001 L-lysine salt Form I in aqueous formulations (0.5% CMC, 0.25% Tween 80, water) were orally administrated at a dose of 50 mg EqEYP001/Kg in 3 male rats for each compound. Blood samples were taken at 0.25 h, 0.5 h, 1 h, 2 h, 4 h, 6 h, 8 h, 12 h, and 24 h after oral administration.

Setting [8] is: listed as EYP001 L-lysine salt (form VI).
The mark [9] stands for this setting: after 0.5 h, listed as EYP001 L-Lysine salt (Form VI).
The mark [10] stands for this setting: after 1 h, listed as EYP001 L-Lysine salt (Form VI).
Setting [11] is: male rats, aqueous formulation, listed as EYP001 L-lysine salt (Form VI).
Setting [12] is: male rats, versus EYP001 free acid, listed as EYP001 L-lysine salt (Form VI).

Take `NC1CCCCC1.O=C(O)c1cc2c(Cl)c(N3CCN(S(=O)(=O)c4c(Cl)cccc4Cl)CC3)ccc2o1`: in series [1], the Soluble fraction was 0.19 mg/mL of EYP001 and the pH turned out to be 6.5.
In the same order, the values of `O=C(O)c1cc2c(Cl)c(N3CCN(S(=O)(=O)c4c(Cl)cccc4Cl)CC3)ccc2o1.c1ccc(CCNCc2ccccc2)cc1` [EYP001 Benethamine salt (Polymorph I)] are 0.01 mg/mL of EYP001 and 6.6.
In the case of `O=C(O)c1cc2c(Cl)c(N3CCN(S(=O)(=O)c4c(Cl)cccc4Cl)CC3)ccc2o1.c1ccc(CCNCc2ccccc2)cc1` [EYP001 Benethamine salt (Polymorph II)], in series [1], the Soluble fraction was 0.01 mg/mL of EYP001 and the pH was determined as 6.5.
Regarding `O=C(O)c1cc2c(Cl)c(N3CCN(S(=O)(=O)c4c(Cl)cccc4Cl)CC3)ccc2o1.c1ccc(CCNCc2ccccc2)cc1` [EYP001 Benethamine salt (polymorph I)], the Soluble fraction in series [2] (after 0.5 h) and in series [2] (after 1 h) was 0.001 mg/mL of EYP001 each time.
With `O=C(O)c1cc2c(Cl)c(N3CCN(S(=O)(=O)c4c(Cl)cccc4Cl)CC3)ccc2o1.c1ccc(CCNCc2ccccc2)cc1` [EYP001 Benethamine salt (polymorph II)], the Soluble fraction is given as 0.0002 mg/mL of EYP001 in series [2] (after 0.5 h) and 0.0003 mg/mL of EYP001 in series [2] (after 1 h).
Consider `NCCCC[C@H](N)C(=O)O.O=C(O)c1cc2c(Cl)c(N3CCN(S(=O)(=O)c4c(Cl)cccc4Cl)CC3)ccc2o1` [EYP001 L-lysine salt Form VI, L-lysine salt of 4-chloro-5-[4-(2,6-dichlorophenyl)sulfonylpiperazin-1-yl]-1-benzofuran-2-carboxylic acid], for which the “mass loss during preliminary drying phase” value in series [3] (25° C./0% RH before sorption, listed as EYP001 L-lysine salt (Form VI)) is “no significant mass loss”. The “water uptake (DVS)” value in series [3] (25° C./60% RH, listed as EYP001 L-lysine salt form VI) was 0.07%. The “water uptake upon sorption (DVS)” value in series [3] (listed as EYP001 L-lysine salt (Form VI)) and in series [3] (setting [8]) was 0.4% throughout. For the same compound, in series [3] (25° C., listed as EYP001 L-lysine salt (Form VI)), the maximum hysteresis sorption/desorption came out at 0.15%. Besides, the “hygroscopicity (DVS)” value in series [3] (setting [8]) and in series [3] (listed as EYP001 L-lysine salt form VI) was “non-hygroscopic” in each case. Besides, the “Start (° C.)” value in series [4] (TGA step 1) was found to be 223 °C; in series [4] (TGA step 2), 275 °C. In addition, the “Stop (° C.)” value in series [4] (TGA step 1) came to 275 °C; in series [4] (TGA step 2) it was 480 °C. Also, the “TEndset (° C.)” value in series [4] (TGA step 1) came out at 262 °C; in series [4] (TGA step 2) it was 344 °C. The results for the “TOnset (° C.)” value in series [4] (TGA step 1) and in series [4] (TGA step 2) were 251 °C and 313 °C, respectively. The “Δm (%) mass loss upon heating” value in series [4] (TGA step 1) was 11.2%; in series [4] (TGA step 2) it was 58.4%. Besides, in series [4] (heater ramp 10 ° C./min, nitrogen, listed as EYP001 L-lysine salt (Form VI)), the “onset temperature of thermal decomposition (TGA)” value was found to be 251 °C. In addition, the “mass loss before the beginning of thermal decomposition (TGA)” value in series [4] (upon heating, listed as EYP001 L-lysine salt (Form VI)) is reported as “no mass loss”. Also, the Soluble fraction is 0.035 mg/mL of EYP001 in series [2] (setting [9]); 0.033 mg/mL of EYP001 in series [2] (setting [10]); 0.50 mg/mL of EYP001 in series [5] (setting [9]); 0.75 mg/mL of EYP001 in series [5] (setting [10]); 0.90 mg/mL of EYP001 in series [5] (after 2 h, listed as EYP001 L-Lysine salt (Form VI)); 1.18 mg/mL of EYP001 in series [5] (after 24 h, listed as EYP001 L-Lysine salt (Form VI)). The pH entry in series [5] (pH given with the soluble fraction, after 2 h) was “(pH = 4.9)”; in series [5] (pH printed with the soluble fraction, after 0.5 h, listed as EYP001 L-Lysine salt (Form VI)), “(pH = 5.0)”; in series [5] (pH printed with the soluble fraction, after 1 h, listed as EYP001 L-Lysine salt (Form VI)), “(pH = 4.9)”; in series [5] (pH printed with the soluble fraction, after 24 h, listed as EYP001 L-Lysine salt (Form VI)) it was “(pH = 4.9)”. For the same compound, the “Mean AUClast” value in series [6] (setting [11]) was found to be 4612.3 ng·h/mL. Also, the “Mean Cmax” value in series [6] (setting [11]) is given as 2399.2 ng/mL. Besides, the “% increase/EYP001 (AUClast)” value in series [6] (setting [12]) is reported as “+36.6%”. For the same compound, in series [6] (setting [12]), the “% increase/EYP001 (Cmax)” value is recorded as “+66.1%”. For the same compound, the “C max compared to EYP001 free acid” value in series [6] (rat) is given as “higher C max”. The “exposure (AUC0-24) compared to EYP001 free acid” value in series [6] (rat) was “superior exposure”. Further, the “variability of the C max (CV %) compared to EYP001 free acid” value in series [6] (rat) was “strongly reduced”. The “variability of the exposure (CV %) compared to EYP001 free acid” value in series [6] (rat) is reported as “strongly reduced”.
For `CNCC(O)C(O)C(O)C(O)CO.O=C(O)c1cc2c(Cl)c(N3CCN(S(=O)(=O)c4c(Cl)cccc4Cl)CC3)ccc2o1` [EYP001 Meglumine salt, reference compound], in series [7], the “Mean AUC0-24” value came to 33076 ng·h/mL and the “Mean Cmax” value was determined as 5372 ng/mL.
On to `C1COCCN1.O=C(O)c1cc2c(Cl)c(N3CCN(S(=O)(=O)c4c(Cl)cccc4Cl)CC3)ccc2o1` [EYP001 Morpholine salt, reference compound], for which, in series [1], the Soluble fraction is reported as 0.22 mg/mL of EYP001 and the pH is on record as 6.5.
In the case of `O=C([O-])c1cc2c(Cl)c(N3CCN(S(=O)(=O)c4c(Cl)cccc4Cl)CC3)ccc2o1.[K+]` [EYP001 Potassium salt, reference compound], the results for the Soluble fraction in series [5] (after 0.5 h) and in series [5] (after 1 h) were 0.35 mg/mL of EYP001 and 0.38 mg/mL of EYP001, respectively. Also, the pH entry in series [5] (pH given with the soluble fraction, after 0.5 h) is on record as “(pH = 5.0)”; in series [5] (pH given with the soluble fraction, after 1 h) it was “(pH = 5.0)”.

The values are drawn from US20250019370A1, “L-LYSINE SALT OF 4-CHLORO-5-[4-(2,6-DICHLOROPHENYL)SULFONYLPIPERAZIN-1-YL]-1-BENZOFURAN-2-CARBOXYLIC ACID AND VARIOUS FORMS THEREOF” (ENYO PHARMA, priority 2023, published 2025).
